{"source": "paper PMC11571207", "about": "“Stereorandomized Oncocins with Preserved Ribosome Binding and Antibacterial Activity” (Journal of Medicinal Chemistry, 2024)", "key": {"A. baumannii ATCC19606": {"system": "A. baumannii ATCC19606", "assay": "microbe, parasite or virus in culture", "details": "for MIC A. baumannii, 12.5% MHB / MIC A. baumannii, Full MHB: A. baumannii ATCC19606, 16–20 h at 37 °C; for MIC A. baumannii, 12.5% MHB: 12.5% Müller–Hinton medium; for MIC A. baumannii, Full MHB: full Müller–Hinton medium; for MIC A. baumannii ATCC19606: supplement CSV", "source_text": "(§1) We tested antibacterial effects against the Gram-negative bacteria Escherichia coli, Klebsiella pneumoniae, Pseudomonas aeruginosa, and Acinetobacter baumannii and the Gram-positive methicillin-resistant Staphylococcus aureus (MRSA).\n(§2) Bacterial growth assay (Figure S1), transmission electron microscopy (Figure S6), serum stability assay (Figure S7), circular dichroism spectral recording (Figures S8 and S9), antimicrobial and hemolysis activity assays (MIC and MHC), and vesicle leakage assay were carried out as described in earlier publications.[43],[44]\n(§3) Minimum inhibitory concentration assay\n(§4) Antimicrobial activity was assayed against P. aeruginosa PAO1, K. pneumoniae NCTC418, E. coli W3110, A. baumannii ATCC 19606, methicillin-resistant S. aureus COL (MRSA), and for selected peptides on P. aeruginosa PA14 and the polymyxin-B-resistant derivative PA14 2P4, as well as the clinical isolates ZEM-1A and ZEM9A, K. pneumoniae OXA-48, S. aureus Newman, Enterobacter cloacae and Burkholderia cenocepacia. The minimal inhibitory concentration (MIC) was determined by using broth microdilution method. A colo ny of bacteria was picked and grown in Luria-Bertani (LB) medium overnight at 37°C. For E. coli BW25113 sbmA::kan the medium was supplemented with 25 mg/L of kanamycin. The next day, the culture was then regrown in LB medium to log phase (OD600 = 0.6 to 0.8), which lasted approximately 4 h, and diluted to an OD600 of 0.022 in the desired medium. Stock solutions of 1 mg/mL of the samples were prepared in sterilized milliQ water and diluted to the beginning concentration of 64 μg/mL in 300 μL Mueller Hinton (MH)-medium. The diluted samples were added to first well of 96-well microtiter plate (TPP, untreated, Faust Laborbedarf, AG, Schaffhausen) and diluted serially by ½. Finally, 4 μL of the bacterial suspension was inoculated into the sample solutions (150 μL/well) with a final inoculation of about 5∙10^5 CFU/mL. The plates were then incubated at 37°C for 15-18h. For each assay, sterility (broth only) and growth control (broth with bacterial inoculum, without antibiotics) were checked with two columns in the plate. The next day, 15 μL of 3-(4,5-dimethylthiazol-2-yl)-2,5-diphenyltetrazolium bromide (MTT) was added to each well of the plate, such a way that MIC was defined as the lowest concentration of the peptide that inhibited visible growth of the tested"}, "E. coli W3110": {"system": "E. coli W3110", "assay": "microbe, parasite or virus in culture", "details": "for MIC E. coli, 12.5% MHB / MIC E. coli, Full MHB: E. coli W3110, 16–20 h at 37 °C, broth microdilution; for MIC E. coli, 12.5% MHB: 12.5% Müller–Hinton medium; for MIC E. coli, Full MHB: full Müller–Hinton medium; for MIC E. coli W3110: supplement CSV", "source_text": "as §1, §2, §3, §4"}, "K. pneumoniae NCTC 418": {"system": "K. pneumoniae NCTC 418", "assay": "microbe, parasite or virus in culture", "details": "for MIC K. pneumoniae, 12.5% MHB / MIC K. pneumoniae, Full MHB: K. pneumoniae NCTC 418, 16–20 h at 37 °C; for MIC K. pneumoniae, 12.5% MHB: 12.5% Müller–Hinton medium; for MIC K. pneumoniae, Full MHB: full Müller–Hinton medium; for MIC K. pneumoniae NCTC418: supplement CSV", "source_text": "as §1, §2, §3, §4"}, "P. aeruginosa PAO1": {"system": "P. aeruginosa PAO1", "assay": "microbe, parasite or virus in culture", "details": "for MIC P. aeruginosa, 12.5% MHB / MIC P. aeruginosa, Full MHB: P. aeruginosa PAO1, 16–20 h at 37 °C; for MIC P. aeruginosa, 12.5% MHB: 12.5% Müller–Hinton medium; for MIC P. aeruginosa, Full MHB: full Müller–Hinton medium; for MIC P. aeruginosa PAO1: supplement CSV", "source_text": "as §1, §2, §3, §4"}, "S. aureus COL (MRSA)": {"system": "S. aureus COL (MRSA)", "assay": "microbe, parasite or virus in culture", "details": "for MIC S. aureus, 12.5% MHB / MIC S. aureus, Full MHB: S. aureus COL (MRSA), 16–20 h at 37 °C; for MIC S. aureus, 12.5% MHB: 12.5% Müller–Hinton medium; for MIC S. aureus, Full MHB: full Müller–Hinton medium; for MIC S. aureus COL (MRSA): supplement CSV", "source_text": "as §1, §2, §3, §4"}, "human red blood cells": {"system": "human red blood cells", "assay": "Hemolysis assay, minimum hemolytic concentration", "details": "for Haemolysis on hRBC, MHC: 2.5% human red blood cells (final) in 10 mM phosphate, 150 mM NaCl, pH 7.4, 25 °C, 4 h, visual inspection; for MHC human red blood cells: supplement CSV"}}, "note": "Non-standard residues stand in square brackets, D forms with d. Residues, ends and D or L forms follow the SMILES beside them. No end group written: not given here."}
{"compound": "VDKPPYLPRPRPPRRIYNR [srP45-Onc] (VDKPPYLPRPRPPRRIYNR-NH2; also: residues 4-5 (Pro-Pro) stereorandomized (1:1 L/D mixture))", "values": [{"measurement": "MIC A. baumannii, 12.5% MHB", "setting": "A. baumannii ATCC19606", "result": 8, "unit": "µg/mL"}, {"measurement": "MIC A. baumannii, Full MHB", "setting": "A. baumannii ATCC19606", "result": 64, "unit": "µg/mL"}, {"measurement": "MIC A. baumannii ATCC19606", "setting": "A. baumannii ATCC19606; 12.5% MH pH 7.4", "result": 8, "unit": "µg/mL"}, {"measurement": "MIC A. baumannii ATCC19606", "setting": "A. baumannii ATCC19606; full MH pH 7.4", "result": 64, "unit": "µg/mL"}, {"measurement": "MIC E. coli, 12.5% MHB", "setting": "E. coli W3110", "result": 4, "unit": "µg/mL"}, {"measurement": "MIC E. coli, Full MHB", "setting": "E. coli W3110", "result": 16, "unit": "µg/mL"}, {"measurement": "MIC E. coli W3110", "setting": "E. coli W3110; 12.5% MH pH 7.4", "result": 4, "unit": "µg/mL"}, {"measurement": "MIC E. coli W3110", "setting": "E. coli W3110; full MH pH 7.4", "result": 16, "unit": "µg/mL"}, {"measurement": "MIC K. pneumoniae, 12.5% MHB", "setting": "K. pneumoniae NCTC 418", "result": 8, "unit": "µg/mL"}, {"measurement": "MIC K. pneumoniae, Full MHB", "setting": "K. pneumoniae NCTC 418", "result": 16, "unit": "µg/mL"}, {"measurement": "MIC K. pneumoniae NCTC418", "setting": "K. pneumoniae NCTC 418; 12.5% MH pH 7.4", "result": 8, "unit": "µg/mL"}, {"measurement": "MIC K. pneumoniae NCTC418", "setting": "K. pneumoniae NCTC 418; full MH pH 7.4", "result": 16, "unit": "µg/mL"}, {"measurement": "MIC P. aeruginosa, 12.5% MHB", "setting": "P. aeruginosa PAO1", "result": "> 16", "unit": "µg/mL"}, {"measurement": "MIC P. aeruginosa, Full MHB", "setting": "P. aeruginosa PAO1", "result": "> 64", "unit": "µg/mL"}, {"measurement": "MIC P. aeruginosa PAO1", "setting": "P. aeruginosa PAO1; 12.5% MH pH 7.4", "result": ">16", "unit": "µg/mL"}, {"measurement": "MIC P. aeruginosa PAO1", "setting": "P. aeruginosa PAO1; full MH pH 7.4", "result": ">64", "unit": "µg/mL"}, {"measurement": "MIC S. aureus, 12.5% MHB", "setting": "S. aureus COL (MRSA)", "result": ">64 / 64 μg/mL"}, {"measurement": "MIC S. aureus, Full MHB", "setting": "S. aureus COL (MRSA)", "result": ">64 / 64 μg/mL"}, {"measurement": "MIC S. aureus COL (MRSA)", "setting": "S. aureus COL (MRSA); 12.5% MH pH 7.4", "result": 64, "unit": "µg/mL"}, {"measurement": "MIC S. aureus COL (MRSA)", "setting": "S. aureus COL (MRSA); full MH pH 7.4", "result": ">64", "unit": "µg/mL"}, {"measurement": "Haemolysis on hRBC, MHC", "setting": "human red blood cells", "result": ">1000", "unit": "µg/mL"}, {"measurement": "MHC human red blood cells", "setting": "human red blood cells", "result": ">1000", "unit": "µg/mL"}]}
{"compound": "CC[C@H](C)[C@H](NC(=O)[C@H](CCCNC(=N)N)NC(=O)[C@H](CCCNC(=N)N)NC(=O)[C@@H]1CCCN1C(=O)[C@@H]1CCCN1C(=O)[C@H](CCCNC(=N)N)NC(=O)[C@H]1CCCN1C(=O)[C@H](CCCNC(=N)N)NC(=O)[C@@H]1CCCN1C(=O)[C@H](CC(C)C)NC(=O)[C@H](Cc1ccc(O)cc1)NC(=O)[C@@H]1CCCN1C(=O)[C@@H]1CCCN1C(=O)[C@H](CCCCN)NC(=O)[C@H](CC(=O)O)NC(=O)[C@@H](N)C(C)C)C(=O)N[C@@H](Cc1ccc(O)cc1)C(=O)N[C@@H](CC(N)=O)C(=O)N[C@@H](CCCNC(=N)N)C(N)=O", "note": "[DP10-Onc] (H-VDKPPYLPR[dP]RPPRRIYNR-NH2)", "values": [{"measurement": "MIC A. baumannii, 12.5% MHB", "setting": "A. baumannii ATCC19606", "result": 8, "unit": "µg/mL"}, {"measurement": "MIC A. baumannii, Full MHB", "setting": "A. baumannii ATCC19606", "result": 64, "unit": "µg/mL"}, {"measurement": "MIC A. baumannii ATCC19606", "setting": "A. baumannii ATCC19606; 12.5% MH pH 7.4", "result": 8, "unit": "µg/mL"}, {"measurement": "MIC A. baumannii ATCC19606", "setting": "A. baumannii ATCC19606; full MH pH 7.4", "result": 64, "unit": "µg/mL"}, {"measurement": "MIC E. coli, 12.5% MHB", "setting": "E. coli W3110", "result": 4, "unit": "µg/mL"}, {"measurement": "MIC E. coli, Full MHB", "setting": "E. coli W3110", "result": 16, "unit": "µg/mL"}, {"measurement": "MIC E. coli W3110", "setting": "E. coli W3110; 12.5% MH pH 7.4", "result": 4, "unit": "µg/mL"}, {"measurement": "MIC E. coli W3110", "setting": "E. coli W3110; full MH pH 7.4", "result": 16, "unit": "µg/mL"}, {"measurement": "MIC K. pneumoniae, 12.5% MHB", "setting": "K. pneumoniae NCTC 418", "result": 4, "unit": "µg/mL"}, {"measurement": "MIC K. pneumoniae, Full MHB", "setting": "K. pneumoniae NCTC 418", "result": 32, "unit": "µg/mL"}, {"measurement": "MIC K. pneumoniae NCTC418", "setting": "K. pneumoniae NCTC 418; 12.5% MH pH 7.4", "result": 4, "unit": "µg/mL"}, {"measurement": "MIC K. pneumoniae NCTC418", "setting": "K. pneumoniae NCTC 418; full MH pH 7.4", "result": 32, "unit": "µg/mL"}, {"measurement": "MIC P. aeruginosa, 12.5% MHB", "setting": "P. aeruginosa PAO1", "result": 16, "unit": "µg/mL"}, {"measurement": "MIC P. aeruginosa, Full MHB", "setting": "P. aeruginosa PAO1", "result": "> 64", "unit": "µg/mL"}, {"measurement": "MIC P. aeruginosa PAO1", "setting": "P. aeruginosa PAO1; 12.5% MH pH 7.4", "result": 16, "unit": "µg/mL"}, {"measurement": "MIC P. aeruginosa PAO1", "setting": "P. aeruginosa PAO1; full MH pH 7.4", "result": ">64", "unit": "µg/mL"}, {"measurement": "MIC S. aureus, 12.5% MHB", "setting": "S. aureus COL (MRSA)", "result": ">64 / >64 μg/mL"}, {"measurement": "MIC S. aureus, Full MHB", "setting": "S. aureus COL (MRSA)", "result": ">64 / >64 μg/mL"}, {"measurement": "MIC S. aureus COL (MRSA)", "setting": "S. aureus COL (MRSA); 12.5% MH pH 7.4", "result": ">64", "unit": "µg/mL"}, {"measurement": "MIC S. aureus COL (MRSA)", "setting": "S. aureus COL (MRSA); full MH pH 7.4", "result": ">64", "unit": "µg/mL"}, {"measurement": "Haemolysis on hRBC, MHC", "setting": "human red blood cells", "result": ">1000", "unit": "µg/mL"}, {"measurement": "MHC human red blood cells", "setting": "human red blood cells", "result": ">1000", "unit": "µg/mL"}]}
